Test results reported in the NIST ThermoML archive (doi:10.1016/j.jct.2010.05.002).
± gives the expanded uncertainty stated by the source.

Tests used:
[1] = Molar enthalpy of transition or fusion; conditions: Crystal; Adiabatic calorimetry
[2] = for vapor or sublimation pressure: Transpiration method; for Triple point temperature: Adiabatic calorimetry

CC(C)(C)c1ccc(-c2ccccc2)cc1 [4-(1,1-dimethylethyl)-1,1'-biphenyl]
Conditions	Molar enthalpy of transition or fusion [kJ/mol]
[1]	19.9 ± 0.68

[2]
Conditions	vapor or sublimation pressure [kPa]
301 K, Crystal	8.2e-05 ± 5e-06
303.9 K, Crystal	0.000119 ± 7e-06
305.9 K, Crystal	0.000156 ± 9e-06
307.9 K, Crystal	0.000203 ± 1.1e-05
310.9 K, Crystal	0.000285 ± 1.6e-05
312.9 K, Crystal	0.000369 ± 2.1e-05
313.8 K, Crystal	0.000417 ± 2.3e-05
315.8 K, Crystal	0.000507 ± 2.8e-05
318.8 K, Crystal	0.000708 ± 3.9e-05
319.8 K, Crystal	0.000814 ± 4.5e-05
320.2 K, Crystal	0.000843 ± 4.7e-05
321.7 K, Crystal	0.001012 ± 5.6e-05
322.7 K, Crystal	0.001146 ± 6.3e-05
323.2 K, Crystal	0.001207 ± 6.7e-05
325.2 K, Crystal	0.0015 ± 8.1e-05
326.2 K, Crystal	0.00168 ± 9.1e-05
327.4 K, Liquid	0.00187 ± 0.0001
331.5 K, Liquid	0.00263 ± 0.00014
334.4 K, Liquid	0.00326 ± 0.00017
336.6 K, Liquid	0.00389 ± 0.0002
338 K, Liquid	0.00428 ± 0.00022
338.8 K, Liquid	0.00465 ± 0.00025
340.5 K, Liquid	0.00532 ± 0.00028
341.6 K, Liquid	0.00563 ± 0.0003
343.7 K, Liquid	0.00682 ± 0.00036
343.8 K, Liquid	0.00673 ± 0.00035
346.6 K, Liquid	0.00813 ± 0.00043
347.2 K, Liquid	0.00852 ± 0.00044
347.6 K, Liquid	0.00864 ± 0.00046
348.8 K, Liquid	0.00962 ± 0.0005
349.8 K, Liquid	0.0103 ± 0.00053
350.4 K, Liquid	0.0106 ± 0.00054
352.8 K, Liquid	0.01272 ± 0.00066
354.8 K, Liquid	0.01441 ± 0.00075
357.4 K, Liquid	0.01733 ± 0.0009
360.2 K, Liquid	0.02099 ± 0.0011
362.6 K, Liquid	0.025 ± 0.0013
364.9 K, Liquid	0.02919 ± 0.0015
367.4 K, Liquid	0.03524 ± 0.0018
370 K, Liquid	0.04103 ± 0.0021
371.2 K, Liquid	0.04325 ± 0.0022
372.6 K, Liquid	0.04776 ± 0.0025
373.9 K, Liquid	0.05134 ± 0.0027
375.3 K, Liquid	0.05672 ± 0.0029
376.7 K, Liquid	0.05953 ± 0.0031
378 K, Liquid	0.06614 ± 0.0035

Conditions	Triple point temperature [K]
[2], Crystal	324.76 ± 0.05

Cc1ccc(-c2ccccc2)cc1 [4-methylbiphenyl]
Conditions	Molar enthalpy of transition or fusion [kJ/mol]
[1]	12.3 ± 0.28

[2], Liquid
Conditions	vapor or sublimation pressure [kPa]
323.2 K	0.00854 ± 0.00045
325.4 K	0.01016 ± 0.00053
327.2 K	0.01156 ± 0.0006
329.7 K	0.01376 ± 0.00072
332.2 K	0.01664 ± 0.00087
334.6 K	0.01979 ± 0.001
336.2 K	0.02224 ± 0.0012
338.7 K	0.02634 ± 0.0014
341.6 K	0.03282 ± 0.0017
344.1 K	0.03851 ± 0.002
346.4 K	0.04496 ± 0.0023
349 K	0.05244 ± 0.0027
351.2 K	0.06003 ± 0.0031
353.2 K	0.0695 ± 0.0036

Conditions	Triple point temperature [K]
[2], Crystal	320.33 ± 0.05
